In patent US20190002399A1 (Nektar Therapeutics, priority 2007, published 2019):
Where two headings read alike, the source gives them in different places. Marks after values point to notes of the source that are not given here.

Legend:
[1] = pKa determination of conjugates; assay type: physicochemical
[2] = Log P determination of conjugates; assay type: physicochemical
[3] = biological target: T1, human Na channels expressed in native cells (human atrial myocytes) (Homo sapiens, UniProt Q14524); assay: Potency at sodium channels: whole-cell patch clamp of sodium current (INa) in isolated human atrial myocytes; assay type: cell-based
T1 construct: from tissue; host or cells: cardiomyocytes isolated from human atrial appendages
Protocol: Experiments were performed at 23±1° C. Currents were measured using the whole-cell variant of the patch clamp method. An Axopatch 1-B amplifier (Axon Instruments, Foster City, Calif.) was used for whole-cell voltage clamping. […] Peak inward current was measured for INa. […] Creation of voltage clamp pulses and data acquisition were controlled by a PC running pClamp software (version 9.2, Axon Instruments). Test compounds were added in a cumulative manner. Data are presented as % reduction of current amplitude. […] Each cell served as its own control. Log-linear plots were created of the mean percent blockade ±SEM at the concentrations tested. Nonlinear curve fitting routine was utilized to fit a three-parameter Hill equation to the results using MicroCal Origin, version 6.0 software.

CB-1 male mice = assay: Analgesic assay: acetic acid writhing test; assay type: in vivo
Protocol: An analgesic assay was used to determine whether a given compound can reduce and/or prevent visceral pain in mice.
The assay utilized CB-1 male mice (5-8 mice per group), each mouse being approximately 0.015-0.030 kg on the study day. Mice were treated according to standard protocols.
Mice were given a single “pretreatment” dose of a compound lacking covalent attachment of a water-soluble, non-peptidic oligomer, a corresponding conjugate comprising the compound covalently attached to a water-soluble, non-peptidic oligomer, or control solution (IV, SC, IP or orally) thirty minutes prior to the administration of the acetic acid solution. The animal was given an IP injection of an irritant (acetic acid) that induces “writhing” which may include: contractions of the abdomen, twisting and turning of the trunk, arching of the back and the extension of the hind limbs. […] After the injection the animals were returned to their cages and their behavior was observed. Contractions were counted between 0 and 20 minutes after the injection. The animals were used once. […]

[4] = mexiletine series, IC50 at 0.1 Hz relative to mexiletine
[5] = 10 mg/kg, SC, 30 min before IP 0.5% acetic acid, counted 0-20 min
[6] = 10 mg/kg, SC, animals with writhes ≤ upper 95% confidence limit for morphine
[7] = 10 mg/kg, SC, responding animals/N
[8] = lidocaine series, IC50 at 0.1 Hz relative to lidocaine
[9] = lidocaine series, peak INa, human atrial myocytes, pacing 0.1 Hz, 23±1° C

T1 sequence (Q14524 whole entry): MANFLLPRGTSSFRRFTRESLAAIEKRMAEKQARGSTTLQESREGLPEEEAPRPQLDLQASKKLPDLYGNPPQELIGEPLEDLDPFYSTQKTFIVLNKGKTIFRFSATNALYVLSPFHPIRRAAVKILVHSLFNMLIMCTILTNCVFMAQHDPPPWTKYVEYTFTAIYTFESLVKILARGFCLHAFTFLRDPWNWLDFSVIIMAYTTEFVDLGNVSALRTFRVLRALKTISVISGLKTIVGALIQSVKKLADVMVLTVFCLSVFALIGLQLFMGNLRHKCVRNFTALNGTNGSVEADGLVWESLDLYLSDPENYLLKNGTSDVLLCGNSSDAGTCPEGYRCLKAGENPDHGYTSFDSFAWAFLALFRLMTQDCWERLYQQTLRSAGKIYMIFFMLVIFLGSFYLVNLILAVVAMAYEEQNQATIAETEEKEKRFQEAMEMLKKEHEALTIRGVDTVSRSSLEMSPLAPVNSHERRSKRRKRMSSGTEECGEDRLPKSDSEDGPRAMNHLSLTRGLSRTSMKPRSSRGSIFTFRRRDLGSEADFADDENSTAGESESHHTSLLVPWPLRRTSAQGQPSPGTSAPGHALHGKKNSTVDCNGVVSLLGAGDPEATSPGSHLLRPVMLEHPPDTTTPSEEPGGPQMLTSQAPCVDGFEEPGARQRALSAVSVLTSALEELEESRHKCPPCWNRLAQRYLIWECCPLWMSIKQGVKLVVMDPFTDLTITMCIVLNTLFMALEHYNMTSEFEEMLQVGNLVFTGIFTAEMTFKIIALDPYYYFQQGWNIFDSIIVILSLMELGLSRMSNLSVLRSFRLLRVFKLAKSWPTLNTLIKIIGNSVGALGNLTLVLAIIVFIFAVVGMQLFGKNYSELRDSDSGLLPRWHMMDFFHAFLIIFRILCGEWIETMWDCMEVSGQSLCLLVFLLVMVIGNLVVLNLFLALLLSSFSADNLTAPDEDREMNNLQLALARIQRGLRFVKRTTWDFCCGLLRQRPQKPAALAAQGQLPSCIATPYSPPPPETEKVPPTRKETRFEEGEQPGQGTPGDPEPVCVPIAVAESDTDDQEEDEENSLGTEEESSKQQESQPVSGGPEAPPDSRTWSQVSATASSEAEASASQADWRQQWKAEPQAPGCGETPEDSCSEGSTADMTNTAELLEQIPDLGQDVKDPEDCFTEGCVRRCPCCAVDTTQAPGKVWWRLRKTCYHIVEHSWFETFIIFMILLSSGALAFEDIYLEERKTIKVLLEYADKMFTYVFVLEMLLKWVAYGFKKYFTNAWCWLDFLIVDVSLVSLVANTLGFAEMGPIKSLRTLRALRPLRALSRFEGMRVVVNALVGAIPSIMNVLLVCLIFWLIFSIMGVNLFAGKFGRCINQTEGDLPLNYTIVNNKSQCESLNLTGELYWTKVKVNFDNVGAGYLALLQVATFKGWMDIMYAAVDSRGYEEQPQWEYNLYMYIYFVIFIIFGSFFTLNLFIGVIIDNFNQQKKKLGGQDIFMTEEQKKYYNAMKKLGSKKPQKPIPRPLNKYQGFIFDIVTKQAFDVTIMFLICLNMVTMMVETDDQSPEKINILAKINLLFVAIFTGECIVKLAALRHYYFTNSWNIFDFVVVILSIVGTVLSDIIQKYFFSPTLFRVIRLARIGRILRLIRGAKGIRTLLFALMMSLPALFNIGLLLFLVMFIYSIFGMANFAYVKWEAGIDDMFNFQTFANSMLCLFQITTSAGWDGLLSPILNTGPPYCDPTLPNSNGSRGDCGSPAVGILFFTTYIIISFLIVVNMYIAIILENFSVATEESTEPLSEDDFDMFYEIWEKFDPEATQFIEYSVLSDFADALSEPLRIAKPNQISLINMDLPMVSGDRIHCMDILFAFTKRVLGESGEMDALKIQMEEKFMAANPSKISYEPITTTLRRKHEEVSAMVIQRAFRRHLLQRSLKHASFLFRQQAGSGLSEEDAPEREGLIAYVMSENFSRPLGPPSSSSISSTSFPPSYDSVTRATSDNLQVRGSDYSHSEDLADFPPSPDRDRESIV

Row | Molecule | pKa1 ([1]; Table 2, mexiletine conjugates) | logP ([2]; read-out: LogP) | Fold Change vs. Parent [3, 4] | IC50 ([3]; read-out: IC50 at 0.1 Hz) [µM] | % Reduction in Writhing (CB-1 male mice; 10 mg/kg, SC) | Mean (writhes) (CB-1 male mice; [5]) | # of Responders (CB-1 male mice; [6]) | Responding Fraction (CB-1 male mice; [7]) | Fold Change vs. Parent [3, 8] | also measured
1 | COCCOCCOCCOCCOCCOCCOCCOCCNC(C)COc1c(C)cccc1C (stereo not drawn) [N-mPEG8-Mexiletine, N-mPEG8-mexiletine] | 8.79 | 1.79 | 2 | 90.5 | 65.8% | 17.2 | 3 | 0.60 | – | –
2 | COCCOCCOCCOCCCNC(C)COc1c(C)cccc1C (stereo not drawn) [N-mPEG3-C3-Mexiletine, N-mPEG3-C3-mexiletine] | 8.98 | 2.05 | 4 | 188 | 46.3% | 29.8 | 2 | 0.40 | – | –
3 | CCN(CCOCCOCCOCCOCCOCCOCCOCCOCCOC)CC(=O)Nc1c(C)cccc1C [mPEG9-Lidocaine, mPEG9-lidocaine] | – | 0.82 | – | 173 | – | – | – | – | 2 | pKa ([1]; read-out: pKa): 6.57
4 | CCN(CCOCCOCCOCCOCCOCCOC)CC(=O)Nc1c(C)cccc1C [mPEG6-Lidocaine, mPEG6-lidocaine] | – | 1.23 | – | 473 | – | – | – | – | 5 | pKa ([1]; read-out: pKa): 6.46
5 | CCN(CCOCCOCCOCCOCCOCCOCCOCCOC)CC(=O)Nc1c(C)cccc1C [mPEG8-Lidocaine, mPEG8-lidocaine] | – | 0.63 | – | 57.5 | 37.2% | 38.0 | 2 | 0.40 | 1 | pKa ([1]; read-out: pKa): 6.43
6 | CCN(CCOCCOCCOCCOCCO)CC(=O)Nc1c(C)cccc1C [PEG5-Lidocaine, HO-PEG5-Lidocaine] | – | – | – | 330 | – | – | – | – | 3 | –
7 | CN1CC[C@]23c4c5ccc(O)c4O[C@H]2[C@@H](O)C=C[C@H]3[C@H]1C5 [Morphine, morphine, reference compound] | – | – | – | – | – | – | – | – | – | # of Responders (CB-1 male mice; historical morphine data, N 27, animals with writhes ≤ upper 95% confidence limit for morphine): 15; Mean (writhes) (CB-1 male mice; historical morphine data, contractions counted 0-20 min after IP 0.5% acetic acid, group table: SC 0.5 mg/kg): 21.33; % Reduction in Writhing (CB-1 male mice; historical morphine data, group table: SC 0.5 mg/kg): 57%; Responding Fraction (CB-1 male mice; historical morphine data, responding animals/N): 0.56
8 | CCN(CCOCCOCCOCCOCCOCCOCCOC)CC(=O)Nc1c(C)cccc1C [mPEG7-Lidocaine, mPEG7-lidocaine] | – | – | – | – | 40.5% | 36.0 | 2 | 0.40 | 2 | pKa ([1]; Table 1, lidocaine conjugates): 6.81; logP ([2]; Table 1, lidocaine conjugates): 1.37; IC50 [3, 9]: 236 µM
9 | CCN(CCOCCOCCOCCOCCOCCO)CC(=O)Nc1c(C)cccc1C [PEG6-Lidocaine, HO-PEG6-Lidocaine] | – | – | – | 104 | – | – | – | – | 1 | –
10 | CCN(CCOCCOCCOCCOC)CC(=O)Nc1c(C)cccc1C [mPEG4-Lidocaine, mPEG4-lidocaine] | – | 1.42 | – | 178 | – | – | – | – | 2 | pKa ([1]; read-out: pKa): 6.46
11 | COCCOCCOCCOCCOCCNC(C)COc1c(C)cccc1C (stereo not drawn) [N-mPEG5-Mexiletine, N-mPEG5-mexiletine] | 8.27 | 4.51 | – | – | 42.4% | 29.0 | 2 | 0.40 | – | pKa2 ([1]; Table 2, mexiletine conjugates): 7.86
12 | PEG6-di-lidocaine [mPEG6-Di-Lidocaine] | – | – | – | – | 37.9% | 27.0 | 3 | 0.60 | 2 | IC50 [3, 9]: 236 µM
13 | CN(C)C(=O)C(CCN1CCC(O)(c2ccc(Cl)cc2)CC1)(c1ccccc1)c1ccccc1 [Loperamide, reference compound] | – | – | – | – | – | – | – | – | – | # of Responders (CB-1 male mice; 0.75 mg/kg, SC): 4; % Reduction in Writhing (CB-1 male mice; 0.75 mg/kg, SC): 78.6%; Responding Fraction (CB-1 male mice; 0.75 mg/kg, SC): 1.00; Mean (writhes) (CB-1 male mice; 0.75 mg/kg, SC, 30 min before IP 0.5% acetic acid, counted 0-20 min): 9.0
14 | COCCOCCOCCNC(C)COc1c(C)cccc1C (stereo not drawn) [N-mPEG3-Mexiletine, N-mPEG3-mexiletine] | 8.27 | 2.26 | 5 | 284 | – | – | – | – | – | –
15 | COCCOCCOCCOCCOCCOCCOCCN(CCOCCOCCOCCOCCOCCOCCOC)C(C)COc1c(C)cccc1C (stereo not drawn) [N,N-Di-mPEG7-Mexiletine, N,N-di-mPEG7-mexiletine] | 7.75 | 0.83 | 2 | 130 | – | – | – | – | – | –
16 | CCN(CCOCCOCCOCCOCCOC)CC(=O)Nc1c(C)cccc1C [mPEG5-Lidocaine, mPEG5-lidocaine] | – | – | – | – | – | – | – | – | 1 | pKa ([1]; Table 1, lidocaine conjugates): 6.46; logP ([2]; Table 1, lidocaine conjugates): 1.01; IC50 [3, 9]: 53.5 µM
17 | PEG5-di-lidocaine [mPEG5-Di-Lidocaine] | – | – | – | – | 60.3* % | 17.3 | 2 | 0.50* | 1 | IC50 [3, 9]: 83.3 µM; # of Responders (CB-1 male mice; 3 mg/kg, SC): 2; % Reduction in Writhing (CB-1 male mice; 3 mg/kg, SC): 46.0%; Responding Fraction (CB-1 male mice; 3 mg/kg, SC): 0.50; Mean (writhes) (CB-1 male mice; 3 mg/kg, SC, 30 min before IP 0.5% acetic acid, counted 0-20 min): 23.5
18 | CCN(CC)CC(=O)Nc1c(C)cccc1C [Lidocaine, lidocaine, reference compound] | – | – | – | – | 37.5% | 36.3 | 2 | 0.50 | – | –
19 | CCN(CCOCCOCCOC)CC(=O)Nc1c(C)cccc1C [mPEG3-Lidocaine, mPEG3-lidocaine] | – | 1.55 | – | 706 | – | – | – | – | 7 | pKa ([1]; read-out: pKa): 6.46
20 | CCNCCOCCOCCOCCOCCN(CC)CC(=O)Nc1c(C)cccc1C [EtNH-PEG5-Lidocaine, EtNH-PEG5-lidocaine] | – | – | – | 99.3 | – | – | – | – | 1 | –
21 | Cc1cccc(C)c1OCC(C)NCCOCCOCCOCCNC(C)COc1c(C)cccc1C (stereo not drawn) [PEG4-Di-Mexiletine, PEG4-di-Mexiletine] | 7.73 | 2.36 | 0.14 | 7.32 | – | – | – | – | – | –
22 | COCCOCCOCCOCCOCCOCCOCCNC(C)COc1c(C)cccc1C (stereo not drawn) [N-mPEG7-Mexiletine, N-mPEG7-mexiletine] | 8.26 | 1.23 | 4 | 206 | – | – | – | – | – | –
23 | COCCOCCOCCN(CCOCCOCCOC)C(C)COc1c(C)cccc1C (stereo not drawn) [N,N-Di-mPEG3-Mexiletine, N,N-di-mPEG3-mexiletine] | 7.76 | 1.96 | 1 | 66.2 | – | – | – | – | – | –
24 | COCCOCCOCCOCCOCCN(CCOCCOCCOCCOCCOC)C(C)COc1c(C)cccc1C (stereo not drawn) [N,N-Di-mPEG5-Mexiletine, N,N-di-mPEG5-mexiletine] | 8.26 | 1.61 | 2 | 95.9 | – | – | – | – | – | –
